Results on five compounds are retold here after patent publication US20240158446A1, “CYCLIC COMPOUND HAVING SELECTIVE INHIBITORY ACTION ON KRAS OVER HRAS AND NRAS” (CHUGAI SEIYAKU KABUSHIKI KAISHA, priority 2021, published 2024).

Where a SMILES comes first, the peptide text is derived from it. Bridges are numbered along the chain shown (N, C = ends). [ ]: non-standard residue; d: D form. The star is where a group is joined. hPhe(3-Cl-4-CF3) = N[C@@H](CCc1ccc(C(F)(F)F)c(Cl)c1)C(=O)O; NPrPhe(4-CF3) = CCCN[C@@H](Cc1ccc(C(F)(F)F)cc1)C(=O)O; NMeGly(cPent) = CN[C@H](C(=O)O)C1CCCC1; NMeNva(3-Et) = CCC(CC)[C@H](NC)C(=O)O; NMeD = CN[C@@H](CC(=O)O)C(=O)O; NMeL = CN[C@@H](CC(C)C)C(=O)O; NMeNva = CCC[C@H](NC)C(=O)O; Morpholide = C1CN(*)CCO1; NMeA = CN[C@@H](C)C(=O)O; Ac5c = NC1(C(=O)O)CCCC1; Aze = O=C(O)[C@@H]1CCN1; Ac4c = NC1(C(=O)O)CCC1; Sar = CNCC(=O)O

The target in experiment [1] is GDP-bound HRAS wild-type protein (Homo sapiens, UniProt P01112). The experiment in a line: Binding to HRAS by surface plasmon resonance (SPR), Single Cycle Kinetics. To be noted: ratio of KD for GDP-bound HRAS wild-type protein to KD for KRAS, SPR.
For experiment [2], the system named is human lung cancer strain NCI-H441. The experiment in a line: cells. Particulars: NCI-H441, 96 h, read-out: NCI-H441 IC50 (nM), NCI-H441 cell proliferation, 4 days, CellTiter-Glo. For orientation: In ATP-based viability assays light output follows the ATP content of the culture.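 Also: cell proliferation inhibition after four days measured by CellTiter-Glo.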
The target in experiment [3] is GDP-bound KRAS wild-type protein (Homo sapiens, UniProt P01116). The experiment can be described thus: Binding to KRAS by surface plasmon resonance (SPR), Single Cycle Kinetics. To be noted: SPR, Single Cycle Kinetics, GDP-bound KRAS wild-type protein; read-out: KRAS KD.
The target of experiment [4] is GDP-bound NRAS wild-type protein (Homo sapiens, UniProt P01111). The experiment in a line: Binding to NRAS by surface plasmon resonance (SPR), Single Cycle Kinetics. To be noted: ratio of KD for GDP-bound NRAS wild-type protein to KD for KRAS, SPR. In general terms: SPR reads the build-up and loss of mass on a sensor chip optically.
GDP-bound NRAS wild-type protein, sequence (P01111 whole entry): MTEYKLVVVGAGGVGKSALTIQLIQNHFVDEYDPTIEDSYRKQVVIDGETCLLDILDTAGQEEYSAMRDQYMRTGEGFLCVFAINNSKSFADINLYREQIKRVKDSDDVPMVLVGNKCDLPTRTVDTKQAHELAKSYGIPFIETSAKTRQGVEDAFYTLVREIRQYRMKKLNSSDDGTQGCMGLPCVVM

GDP-bound HRAS wild-type protein, sequence (P01112 whole entry): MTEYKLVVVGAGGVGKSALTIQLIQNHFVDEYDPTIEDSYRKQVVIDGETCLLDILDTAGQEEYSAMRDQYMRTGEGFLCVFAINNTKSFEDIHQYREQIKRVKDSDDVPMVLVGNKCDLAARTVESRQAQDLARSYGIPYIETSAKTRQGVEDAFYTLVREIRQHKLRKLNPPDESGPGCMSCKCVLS
GDP-bound KRAS wild-type protein, sequence (P01116 whole entry): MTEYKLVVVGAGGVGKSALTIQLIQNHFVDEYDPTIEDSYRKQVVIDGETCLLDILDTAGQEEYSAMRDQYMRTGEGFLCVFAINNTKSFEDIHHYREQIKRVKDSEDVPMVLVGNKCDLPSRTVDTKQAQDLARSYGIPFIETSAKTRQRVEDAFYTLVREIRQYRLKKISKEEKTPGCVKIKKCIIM

With `CCCN1C(=O)CN(C)C(=O)[C@H](C)NC(=O)[C@H]([C@@H](C)CC)NC(=O)[C@H](CC(C)C)N(C)C(=O)C[C@@H](C(=O)N2CCOCC2)N(C)C(=O)[C@H](C2CCCC2)N(C)C(=O)C2(CCCC2)NC(=O)[C@@H]2CCCN2C(=O)[C@H](CCc2ccc(C(F)(F)F)c(Cl)c2)NC(=O)CN(C)C(=O)[C@@H]1Cc1ccc(C(F)(F)F)cc1` [PP1971] ([NMeL]IA[Sar][NPrPhe(4-CF3)][Sar][hPhe(3-Cl-4-CF3)]P[Ac5c][NMeGly(cPent)][NMeD]-Morpholide; lactam N-11), in experiment [1], the “HRAS/KRAS (KD ratio)” value was “B (a compound having 3 or more and less than 10 is denoted as B)”. Also, the IC50 in experiment [2] was 38 nM. Moreover, in experiment [3], the Kd (as a rule, the free concentration of one partner at which half of the binding sites on the other are occupied at equilibrium, for simple one-to-one binding) was 5 nM. For the same compound, the “NRAS/KRAS (KD ratio)” value in experiment [4] is “B (a compound having 3 or more and less than 10 is denoted as B)”.
Regarding `CCO[C@@H]1C[C@H]2C(=O)NC3(CC(C)(C)C3)C(=O)N(C)[C@@H](C3CCCC3)C(=O)N(C)[C@H](C(=O)N(C)C)CC(=O)N(C)[C@@H](C)C(=O)N[C@@H]([C@@H](C)CC)C(=O)N(C)CC(=O)N(C)[C@H]3C/C=C\CCN(C3=O)[C@@H](Cc3ccc(C(F)(F)F)cc3)C(=O)N(C)CC(=O)N[C@@H](CCc3ccc(C(F)(F)F)c(OC)c3)C(=O)N2C1` [PP1674], the “HRAS/KRAS (KD ratio)” value in experiment [1] was “A (a compound having 10 or more and less than 20 is denoted as A)”. For the same compound, the IC50 in experiment [2] is 5.1 nM. The Kd in experiment [3] stood at 0.036 nM. In addition, in experiment [4], the “NRAS/KRAS (KD ratio)” value was “A (a compound having 10 or more and less than 20 is denoted as A)”.
Regarding `CCCN(C)C(=O)[C@@H]1CC(=O)N(C)[C@@H](C(C)C)C(=O)N[C@@H]([C@@H](C)CC)C(=O)N(C)CC(=O)N(C)[C@H]2C/C=C\CCN(C2=O)[C@@H](Cc2ccc(C(F)(F)F)cc2)C(=O)N(C)CC(=O)N[C@@H](CCc2ccc(C(F)(F)F)c(OC)c2)C(=O)N2C[C@H](OCC)C[C@H]2C(=O)NC2(CCC2)C(=O)N(C)[C@@H](C2CCCC2)C(=O)N1C` [PP2020], the “HRAS/KRAS (KD ratio)” value in experiment [1] was “A (a compound having 10 or more and less than 20 is denoted as A)”. Further, in experiment [2], the IC50 came to 8.3 nM. Besides, the Kd in experiment [3] amounted to 0.19 nM. Besides, the “NRAS/KRAS (KD ratio)” value in experiment [4] is “A (a compound having 10 or more and less than 20 is denoted as A)”.
For the compound `CCCN(C)C(=O)[C@@H]1CC(=O)N(C)[C@@H](CC(F)F)C(=O)N[C@@H]([C@@H](C)CC)C(=O)N(C)CC(=O)N(C)[C@H]2C/C=C\CCN(C2=O)[C@@H](Cc2ccc(C(F)(F)F)cc2)C(=O)N(C)CC(=O)N[C@@H](CCc2cc(F)c(C(F)(F)F)c(F)c2)C(=O)N2C[C@H](OCC)C[C@H]2C(=O)NC2(CCC2)C(=O)N(C)[C@@H](C2CCCC2)C(=O)N1C` [PP1700], in experiment [1], the “HRAS/KRAS (KD ratio)” value is “A (a compound having 10 or more and less than 20 is denoted as A)”. The IC50 in experiment [2] turned out to be 3.6 nM. In experiment [3], the Kd is 0.11 nM. Also, the “NRAS/KRAS (KD ratio)” value in experiment [4] is “A (a compound having 10 or more and less than 20 is denoted as A)”.
Consider `CCC[C@H]1C(=O)N[C@@H]([C@@H](C)CC)C(=O)N(C)[C@@H](C)C(=O)N2CC[C@H]2C(=O)N(CCC)[C@@H](Cc2ccc(C(F)(F)F)cc2)C(=O)N(C)CC(=O)N[C@@H](CCc2ccc(C(F)(F)F)c(Cl)c2)C(=O)N2CCC[C@H]2C(=O)NC2(CCC2)C(=O)N(C)[C@@H](C(CC)CC)C(=O)N(C)[C@H](C(=O)N2CCOCC2)CC(=O)N1C` [PP1959] ([NMeNva]I[NMeA][Aze][NPrPhe(4-CF3)][Sar][hPhe(3-Cl-4-CF3)]P[Ac4c][NMeNva(3-Et)][NMeD]-Morpholide; lactam N-11), for which the “HRAS/KRAS (KD ratio)” value in experiment [1] was “B (a compound having 3 or more and less than 10 is denoted as B)”. Moreover, the IC50 in experiment [2] worked out at 14.7 nM. Moreover, the Kd in experiment [3] was 0.55 nM. In addition, in experiment [4], the “NRAS/KRAS (KD ratio)” value was “C (A compound having a KD ratio of 0.1 or more and less than 3 is denoted as C)”.
